From US12011428B2, “Compositions and methods for stimulating ventilatory and/or respiratory drive” (priority 2022, dated 2024) come the findings set out here.

The test system of series [1] is freely-moving adult male Sprague—Dawley rats.
Series [2] has as its system adult male Sprague—Dawley rats. Description: Arterial blood gas measurements and A-a gradient. Format: in vivo, rat. The settings on record: GSHee 100 μmol/kg IV alone.
Series [3] deals with adult male Sprague—Dawley rats. Description: Body temperature (BT), rectal thermistor probe. As to conditions: for Body temperature, Post-drug: conscious rats.
Series [4] relates to adult male Sprague—Dawley rats. As to conditions: rat, in vivo, iv.
The subject of series [5] is adult male Sprague—Dawley rats. Description: Behaviors observed after injection. Format: in vivo, rat. As to conditions: GSHee 100 μmol/kg IV.
[6] abbreviates: GSH 100 μmol/kg IV, % change from Pre-values.
[7] abbreviates: GSH 100 μmol/kg IV, sum of the 15 individual % change from pre values.

With `N[C@@H](CCC(=O)N[C@@H](CS)C(=O)NCC(=O)O)C(=O)O` [GSH, glutathione], in series [1] (GSH 100 μmol/kg IV alone), the “Freq (frequency of breathing)” value was “prompt but short-lived increase”, the “MV (minute ventilation)” value is given as “short-lived increases” and the “TV (tidal volume)” value is recorded as “minor effects”. In series [1] (setting [6]), the “Frequency (breaths/min), Peak drug response, %” value was “+41%”; the “Minute Ventilation (ml/min), Peak drug response, %” value was 61%; the “Tidal Volume (ml), Peak drug response, %” value is given as “+15%”. Further, in series [1] (setting [7]), the “Frequency, Total drug response, %” value was “+13%”; the “Minute Ventilation, Total drug response, %” value came to 15%; the “Tidal Volume, Total drug response, %” value is reported as “+2%”.
In the case of `CCOC(=O)CNC(=O)[C@H](CS)NC(=O)CC[C@H](N)C(=O)O` [GSHee, L-glutathione ethyl ester], in series [2], the A-a gradient entry was “did not affect”, the “arterial blood pCO2” value is given as “minor but significant decrease”, the “arterial blood pH” value was “minor but significant increases” and the “arterial blood pO2” value was “minor but significant increases”. Moreover, the “arterial blood sO2” value in series [2] is “did not affect”. For the same compound, in series [3] (5 and 15 min post-injection of GSHee 100 μmol/kg IV), the “body temperature (BT)” value is reported as “Neither vehicle nor GSHee affected BT”. The “Body temperature, Post-drug” value in series [3] (5 min after GSHee 100 μmol/kg IV) is recorded as 37.9 ± 0.1. In series [3] (15 min after GSHee 100 μmol/kg IV), the “Body temperature, Post-drug” value is on record as 37.9 ± 0.1. Moreover, in series [4], the “tail-flick latency (TFL)” value is recorded as “did not alter TFL”. For the same compound, in series [5], the “behavioral signs (movement, squealing, scratching or sniffing) after injection” value was “did not display any obvious behavioral signs”.
